This note sets out measurements from patent publication US11352391B2, “Compositions for inducing urinary voiding and defecation” (Dignify Therapeutics, LLC, priority 2017, dated 2022).

Data set [1] can be described thus: Pharmacokinetics in rat plasma after cassette IV bolus dosing. The note with it: Sprague-Dawley, in vivo, iv. The method, then:
The concentrations of compounds (SEQ ID NOS: 1-11) were measured in rat plasma after intravenous (IV) bolus dosing to determine pharmacokinetic profiles of individual compounds.
Animal preparation: In vivo studies were performed in anesthetized adult Sprague Dawley rats. Rats were anesthetized with urethane (1.2-1.4 g/kg subcutaneous injection). Surgical procedures were then performed with the addition of isoflurane anesthesia (0.05-1.5% in 02) as needed. A venous cannula was inserted into the jugular vein for intravenous (IV) administration of compounds.
In vivo dosing and plasma sampling: Compounds were divided into two groups (soluble and insoluble). Each group was dosed as a cassette in which four compounds (100 μg/kg each compound) were combined into a single IV bolus injection to anesthetized adult Sprague-Dawley rats. Soluble compounds were dissolved in saline. Insoluble compounds were dissolved in a 10% ethanol/saline solution. Rats were cassette dosed based on weight using 0.1 mg/mL solutions of individual compounds. Blood samples (700 μL) were collected using a carotid artery cannula into EDTA tubes containing ascorbic acid (final concentration 1%), and plasma was isolated.
Bioanalytical assay: A reversed-phase HPLC with Turbo Ion Spray MS/MS detection method was developed for bioanalysis. Mass spec transition and settings were individually optimized for each compound and then compounds were cassetted for HPLC method development and optimization. [^13C9; ^15N] [Lys5,MeLeu9,Nle10]-NKA(4-10) was used as an internal standard (IS). Analyte-to-IS peak area ratios for individual compounds were used to create linear calibration curves (1-20 ng/mL) using 1/×2 weighted least-squares regression analysis for evaluation of method linearity, precision and accuracy. For plasma concentration measurements, plasma samples were spiked with IS, processed by extraction, and analyzed using LC-MS/MS. Positive (M+H)+ ions for individual compounds and IS were monitored in MRM mode.

The subject of another data set is anesthetized dog. The experiment in a line: Colorectal pressure manometry in anesthetized dog. The class given is in vivo. The method, then: Animal preparation: Naïve beagle dogs were fasted for 12-24 hours and received a warm water enema the night prior to, and the morning of, the experiment to clear the rectum and lower colon of feces. The day of the experiment, a 20 gauge IV catheter (Terumo Surflo) was placed in the cephalic vein for anesthetic induction (propofol, 10 mg/kg; IV) and delivery of IV fluids (5-10 ml/kg/hr) and compounds. The sedated dog was intubated with a 5-6 Fr tracheal tube and was maintained on 2-3% isoflurane via a ventilator (15-25 breaths/min; tidal volume […]) for the remainder of the experiment.
Bowel contractility: For colorectal pressure manometry, an ˜3 inch balloon catheter was inserted into the rectum and secured to the tail with tape. This catheter was connected via a three-way stopcock to a pressure transducer (UTAH MEDICAL PRODUCTS; DelTran II) for pressure recording. Data were recorded using PowerLab/8SP acquisition system using LabChart software (version 7.3.7; ADINSTRUMENTS, Australia). Arterial pressure, ECG, temperature and blood oxygen saturation (spO2) were monitored throughout the experiment (MEDTRONIC LIFEPAK12). Dogs were recovered in a quiet room under veterinary supervision.

Data set [2] has as its target T1, human NK2 Receptor (hNK2R) (Homo sapiens, UniProt P21452).
T1 sequence (P21452 1-398): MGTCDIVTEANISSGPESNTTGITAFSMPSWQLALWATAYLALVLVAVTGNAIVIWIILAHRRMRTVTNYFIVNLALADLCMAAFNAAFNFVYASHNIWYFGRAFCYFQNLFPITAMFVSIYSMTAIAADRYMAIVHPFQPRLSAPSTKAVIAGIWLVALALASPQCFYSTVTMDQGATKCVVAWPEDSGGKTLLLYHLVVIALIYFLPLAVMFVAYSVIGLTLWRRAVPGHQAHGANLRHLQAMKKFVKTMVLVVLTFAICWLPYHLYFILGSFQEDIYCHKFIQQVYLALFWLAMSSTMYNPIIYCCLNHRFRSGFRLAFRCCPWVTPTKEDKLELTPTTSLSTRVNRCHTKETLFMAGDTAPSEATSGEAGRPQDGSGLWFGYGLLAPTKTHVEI
The experiment in a line: [125I]-NKA radioligand competition binding to human recombinant NK2Rs (CHO-hNK2 membranes). Here is the method:
After removal of the supernatant the cell pellet was washed and collected by re-suspension in PBS and centrifugation.
Frozen pellets were thawed and homogenized in 10 volumes (w/v) of membrane preparation buffer (50 mM HEPES pH 7.4, 1 mM EDTA, 50 μg/mL bacitracin and protease inhibitors) using a Polytron Ultraturrax (twice for 15 s per cycle). […] Protein concentration was determined using BioRad Protein Assay (Milan, Italy) with a BSA standard curve.
Background: Displacement assays read how much labelled ligand stays bound in the presence of the test substance.

Data set [3] concerns the target T2, recombinant hNK2R expressed in CHO cells (Homo sapiens, UniProt P21452).
T2 sequence (P21452 1-398): T1 sequence (P21452 1-398)
The experiment in a line: Intracellular calcium mobilization (FLIPR) in CHO-hNK2 cells. The class given is cell-based. The method, then: CHO-hNK1 and CHO-hNK2 cells were seeded into black walled clear-bottom 384-well plates) at a density of 10,000 and 15,000 cells per well in 50 μL culture media, respectively, and grown overnight at 37° C. in a humidified CO2-incubator. Cells were washed in washing buffer using the EMBLA 384 instrument, leaving 20 μL of buffer per well after the final aspiration. Cells were then incubated at 37° C. with the cytoplasmic Ca2+ indicator Fluo-4 AM (final concentration 1 μM) in assay buffer (20 mM HEPES, 145 mM NaCl, 5 mM KCl, 5.5 mM glucose, 1 mM MgCl2 and 2 mM CaCl2, pH 7.4, 0.05% Pluronic F-127 and 0.1% BSA) containing 2.5 mM probenecid for […] (cell loading). Cells were then washed 3 times in washing buffer (20 mM HEPES, 145 mM NaCl, 5 mM KCl, 5.5 mM glucose, 1 mM MgCl2 and 2 mM CaCl2, pH 7.4 and 2.5 mM probenecid) using the EMBLA 384 instrument, leaving 30 μL of buffer in each well after the last wash. Loaded cell plates were transferred to the FLIPR machine and calcium responses were monitored as described below. A dual read-out FLIPR protocol was used, allowing for characterization of both agonist and antagonist profiles. For quality control, in each compound plate the signal was monitored by evaluating the responses to the reference standards (NKA and Substance P).
Concentration response curves of compounds were run in duplicate on two different occasions from the same stock solutions. Test solutions were prepared from 10 mM stock solutions in DMSO and 1 μL of each solution was stamped into V-bottom assay plates containing 49 μL assay buffer. The final concentration of DMSO was 0.5% in each well.
A general note: Calcium assays in cells follow changes in intracellular calcium, usually with a dye or a luminescent sensor.

Where a SMILES comes first, the peptide text is derived from it. Where only a bound is given, the exact number is not on record here.

In the case of `CCCC[C@H](NC(=O)[C@H](CC(C)C)N(C)C(=O)CNC(=O)[C@@H](NC(=O)[C@H](Cc1ccccc1)NC(=O)[C@H](CCCNC(=N)N)NC(=O)[C@@H](N)CC(=O)O)C(C)C)C(N)=O` [Compound B, Asp-Arg-Phe-Val-Gly-(NMe-Leu)-Nle-NH2] (HELM PEPTIDE1{D.R.F.V.G.[meL].[Nle].[am]}$$$$V2.0; N-terminus assumed), in data set [1], the half-life (as a rule, the time in which the quantity being followed falls by half) was 12 to 72 s. Further, in data set [1] (100 ug/kg), the level at 10 min is less than 1 ng/mL. The “duration of colorectal pressure response” value is reported as “approximately 7 minutes” in the data set on anesthetized dog (IV bolus (B and E 3 μg/kg; G 3, 30 and 66 ug/kg)); “over 30 minutes” in the data set with anesthetized dog (SC 30 μg/kg). In the data set with anesthetized dog (both IV bolus 3 μg/kg and SC 30 μg/kg), the “onset of increase in colorectal pressure” value was no more than 3 min. In data set [2] (displacement of 0.1 nM [125I]-NKA, CHO-hNK2 membranes, read-out: hNK2 binding Ki), the inhibitory constant (Ki) (as a rule, a dissociation constant, usually derived from enzyme kinetics or from competition with a known ligand) was 0.59 nM. The hNK2 selectivity ratio was found to be 557.83 in data set [2] (ratio of Kis hNK1R/hNK2R) and 70 in data set [3] (ratio of EC50s hNK1R/hNK2R). Also, in data set [3] (calcium mobilization, CHO-hNK2 cells, read-out: hNK2 EC50), the EC50 (in general, the midpoint of the concentration-response curve) was determined as 0.08 nM.
